Laboratory results from patent US10308662B2, “Thienopyranones as kinase and epigenetic inhibitors” (SignalRx Pharmaceuticals, Inc., priority 2014, dated 2019).

How the values were obtained:
p-AKT(Ser473) = assay: Western blot of pAKT in SKNBE(2) cells; type: cell-based, human; conditions: 24 hrs treatment, 50 ng/ml IGF stimulation
Experimental: (§1) Cells were stimulated with 50 ng/ml IGF for 30 min and used for lysate preparation. Proteins were quantitated by the BCA protein assay (Pierce). Equal amounts of protein were resolved by polyacrylamide gels, transferred to nitrocellulose membrane and probed by Western blot with the following primary antibodies: p-AKT(Ser473), AKT (Cell Signaling Technologies), N-MYC, CyclinD1 and β-actin (Santa Cruz Biotechnology).

BRD4 = BRD4 (Homo sapiens, UniProt O60885); assay: BRD4 inhibition assay (region not specified); type: binding
Experimental: The activity of a compound of the invention as an inhibitor of a bromodomain-containing protein, such as a BET protein, such as BRD2, BRD3, BRD4, and/or BRDT, or an isoform or mutant thereof, may be determined in vitro, in vivo, or in a cell line. In vitro assays include assays that determine inhibition of bromodomain-containing proteins. Alternatively, inhibitor binding may be determined by running a competition experiment where a provided compound is incubated with a bromodomain-containing protein, such as a BET protein bound to known ligands, labeled or unlabeled. For example, bromodomain inhibition can be determined in vitro using Alpha Screen Technology (http://www.reactionbiology.com/webapps/site/NewsPDFs/Bromodomain%20Assay%20Platform%20for%20Drug%20Screening%20and%20Discovery.pdf). […] Bromodomain inhibition may also be predicted by in silico modeling as described below in the Examples.
Computational modeling was performed using the commercially available FlexX (http://www.biosolveit.de/FlexX/download/flexx_brochure.pdf) software tools. […] It should be noted that the more negative the number or value of the docking score is, the stronger is the predicted binding energy at the BRD4 site that recognizes the acetyl lysine of chromatin.

MYCN promoter region = assay: Brd4 chromatin precipitation with quantitative PCR of MYCN promoter in SKNBE(2) cells; type: cell-based, human; conditions: 24 hours exposure
Experimental: MYCN amplified SKNBE(2) cells were exposed to inhibitors for 24 hours then chromatin was precipitated with Brd4 (rabbit polyclonal antibody) along with rabbit IgG as a negative control (IgG). Precipitated chromatin was analyzed for the MYCN gene (2 sites within the MYCN promoter region) by quantitative PCR and enrichment is shown as the percentage of total input DNA (FIG. 4). The negative control region primers amplify within a gene desert region approximately 1 Mb away from MYCN (MYC-N NR). Error bars represent±SEM of triplicate data. P<0.05 as compared to positive control (paired t-test).

[1] = tested on: pAKT serine 473 in PC3 cells; assay: Cellular PI3K inhibition, pAKT ELISA in PC3 cells; type: cell-based; conditions: Homo sapiens, PC-3; IGF-1 stimulated PC3 cells
Experimental: Biological testing of compounds of Formula I. Representative compounds of the invention were tested for cellular PI3K inhibitory activity (as measured by the most robust marker of pathway activity pAKT) in a prostate cancer cell line (PC3), which is summarized in Table 3. […] Two million cells from the prostate cancer line PC3 were placed into 6 cm culture dishes and allowed to grow in complete RPMI 1640 media (Invitrogen, Carlsbad, Calif., Cat.#22400-105) with 10% fetal bovine serum (Invitrogen, Carlsbad, Calif., Cat.#10438-026). After this time period the cells were serum starved for 5 hours followed by application of the test compound. Test compound was added as a DMSO (dimethyl sulfoxide) solution such that the final DMSO concentration in the cell media was less than or equal to 0.2% by volume. After 30 minutes of exposure the growth factor stimulant, human IGF-1 (PeproTech, Inc., Rocky Hill, N.J., Cat.#100-11), was added in each well. After 30 minutes of IGF-1 exposure, cells were removed from the media and cell lysates were prepared using RIPA Lysis buffer (Upstate, Lake Placid, N.Y., Cat.#20-188), keeping on ice. The pAKT serine 473 level was measured in duplicate samples of the cell lysates using commercially available assays such as the Pathscan® Sandwich ELISA kit for Ser473 pAKT (Cell Signaling, Danvers, Mass., Cat.#7160). A SpectraMax Plus spectrophotometric plate reader (Molecular Devices, Sunnydale, Calif.) was used to measure the optical density signal for pAKT at 450 nm (OD450 nm). The pAKT OD450 nm readings were normalized by total protein amount in the cell lysates determined by standard methods.

PI3Kγ = PI3Kγ (Homo sapiens (Human), UniProt P48736); assay: PI3K gamma isoform inhibition; type: biochemical; conditions: 300 nM
PI3Kα = PI3Kα (Homo sapiens (Human), UniProt P42336); assay: PI3K alpha isoform inhibition; type: biochemical; conditions: 300 nM
HDAC = HDAC inhibitory activity, commercial kit; type: biochemical; conditions: for HDAC inhibitory activity: 1, 10, 50 μM
PI3Kδ = PI3Kδ (Homo sapiens (Human), UniProt O00329); assay: PI3K delta isoform inhibition; type: biochemical; conditions: 300 nM
Text: (§2) Inhibitory activity can be determined routinely using known methods and also from commercial vendors offering this service for kinases and bromodomain proteins. […] In vivo, PI3K inhibition can be determined from target tissue biopsies by standard tissue processing to disrupt cells and then performing Western Blot analysis to determine the presence or absence of pAKT (substrate of PI3K) relative to a control sample. The activity of a compound of the invention as an inhibitor of a bromodomain-containing protein, such as a BET protein, such as BRD2, BRD3, BRD4, and/or BRDT, or an isoform or mutant thereof, may be determined in vitro, in vivo, or in a cell line. In vitro assays include assays that determine inhibition of bromodomain-containing proteins. Alternatively, inhibitor binding may be determined by running a competition experiment where a provided compound is incubated with a bromodomain-containing protein, such as a BET protein bound to known ligands, labeled or unlabeled. For example, bromodomain inhibition can be determined in vitro using Alpha Screen Technology (http://www.reactionbiology.com/webapps/site/NewsPDFs/Bromodomain%20Assay%20Platform%20for%20Drug%20Screening%20and%20Discovery.pdf). […]

BRD4-1 = BRD4-1 (Homo sapiens (Human), UniProt O60885); conditions: cited from earlier work
N-MYC = assay: Western blot of N-MYC in SKNBE(2) cells; type: cell-based, human; conditions: 24 hrs treatment, 50 ng/ml IGF stimulation
Experimental: as §1

PI3K = PI3K inhibition (isoform not given); type: biochemical
Text: as §2

BET bromodomains = conditions: cited from earlier work
PI-3 kinases = conditions: cited from earlier work
breast cancer stem cells = conditions: women with breast tumors with high HER2; decreased from 11%; cited from earlier work

Chain of PI3Kα (P42336 whole entry, canonical isoform): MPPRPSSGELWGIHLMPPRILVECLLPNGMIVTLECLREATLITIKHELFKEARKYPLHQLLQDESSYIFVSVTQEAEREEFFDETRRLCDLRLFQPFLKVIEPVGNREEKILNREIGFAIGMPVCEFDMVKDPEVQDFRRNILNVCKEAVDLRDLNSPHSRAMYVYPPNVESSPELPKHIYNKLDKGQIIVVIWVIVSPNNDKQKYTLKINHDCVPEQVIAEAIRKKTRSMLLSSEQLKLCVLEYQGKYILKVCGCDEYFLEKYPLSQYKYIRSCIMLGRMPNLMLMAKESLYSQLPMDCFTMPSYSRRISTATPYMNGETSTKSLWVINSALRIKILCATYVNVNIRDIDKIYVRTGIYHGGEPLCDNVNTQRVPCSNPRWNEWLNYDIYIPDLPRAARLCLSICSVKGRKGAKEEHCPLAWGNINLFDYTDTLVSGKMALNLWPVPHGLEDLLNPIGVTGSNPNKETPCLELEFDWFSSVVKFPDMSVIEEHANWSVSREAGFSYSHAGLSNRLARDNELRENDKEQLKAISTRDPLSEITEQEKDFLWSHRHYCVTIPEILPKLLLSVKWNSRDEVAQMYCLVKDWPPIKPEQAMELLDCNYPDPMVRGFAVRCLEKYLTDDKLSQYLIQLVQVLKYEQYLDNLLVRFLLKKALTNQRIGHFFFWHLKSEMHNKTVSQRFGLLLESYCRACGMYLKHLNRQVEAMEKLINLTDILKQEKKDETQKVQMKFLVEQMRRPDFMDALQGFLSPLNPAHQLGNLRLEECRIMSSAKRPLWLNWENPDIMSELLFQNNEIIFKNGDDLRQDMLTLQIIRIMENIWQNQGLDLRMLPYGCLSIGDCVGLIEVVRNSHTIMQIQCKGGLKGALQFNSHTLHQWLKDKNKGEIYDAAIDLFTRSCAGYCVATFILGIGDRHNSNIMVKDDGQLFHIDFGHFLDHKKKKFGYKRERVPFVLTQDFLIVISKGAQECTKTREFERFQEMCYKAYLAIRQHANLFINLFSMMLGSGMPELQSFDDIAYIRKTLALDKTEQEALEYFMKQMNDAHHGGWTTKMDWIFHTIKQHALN
Chain of PI3Kα (P27986 whole entry partner, canonical isoform): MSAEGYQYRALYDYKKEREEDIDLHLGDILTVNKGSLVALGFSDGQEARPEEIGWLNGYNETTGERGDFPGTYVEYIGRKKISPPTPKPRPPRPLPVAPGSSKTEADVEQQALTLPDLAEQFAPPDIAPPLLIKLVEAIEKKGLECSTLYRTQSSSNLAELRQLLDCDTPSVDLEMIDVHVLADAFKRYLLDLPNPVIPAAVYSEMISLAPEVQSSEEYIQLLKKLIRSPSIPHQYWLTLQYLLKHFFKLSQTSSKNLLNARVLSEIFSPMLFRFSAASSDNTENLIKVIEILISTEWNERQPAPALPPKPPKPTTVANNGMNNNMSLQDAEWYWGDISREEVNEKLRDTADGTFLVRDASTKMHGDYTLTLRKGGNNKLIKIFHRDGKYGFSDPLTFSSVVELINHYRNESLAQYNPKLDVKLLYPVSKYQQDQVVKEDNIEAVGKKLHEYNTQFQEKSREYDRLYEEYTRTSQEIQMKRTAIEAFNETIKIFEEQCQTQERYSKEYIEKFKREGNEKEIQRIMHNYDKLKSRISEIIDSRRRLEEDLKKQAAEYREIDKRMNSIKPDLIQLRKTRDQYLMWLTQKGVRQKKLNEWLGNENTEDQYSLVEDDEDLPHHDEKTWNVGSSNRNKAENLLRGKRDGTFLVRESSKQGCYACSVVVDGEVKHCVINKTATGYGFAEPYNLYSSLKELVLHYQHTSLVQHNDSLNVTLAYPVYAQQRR
Chain of PI3Kδ (O00329 whole entry, canonical isoform): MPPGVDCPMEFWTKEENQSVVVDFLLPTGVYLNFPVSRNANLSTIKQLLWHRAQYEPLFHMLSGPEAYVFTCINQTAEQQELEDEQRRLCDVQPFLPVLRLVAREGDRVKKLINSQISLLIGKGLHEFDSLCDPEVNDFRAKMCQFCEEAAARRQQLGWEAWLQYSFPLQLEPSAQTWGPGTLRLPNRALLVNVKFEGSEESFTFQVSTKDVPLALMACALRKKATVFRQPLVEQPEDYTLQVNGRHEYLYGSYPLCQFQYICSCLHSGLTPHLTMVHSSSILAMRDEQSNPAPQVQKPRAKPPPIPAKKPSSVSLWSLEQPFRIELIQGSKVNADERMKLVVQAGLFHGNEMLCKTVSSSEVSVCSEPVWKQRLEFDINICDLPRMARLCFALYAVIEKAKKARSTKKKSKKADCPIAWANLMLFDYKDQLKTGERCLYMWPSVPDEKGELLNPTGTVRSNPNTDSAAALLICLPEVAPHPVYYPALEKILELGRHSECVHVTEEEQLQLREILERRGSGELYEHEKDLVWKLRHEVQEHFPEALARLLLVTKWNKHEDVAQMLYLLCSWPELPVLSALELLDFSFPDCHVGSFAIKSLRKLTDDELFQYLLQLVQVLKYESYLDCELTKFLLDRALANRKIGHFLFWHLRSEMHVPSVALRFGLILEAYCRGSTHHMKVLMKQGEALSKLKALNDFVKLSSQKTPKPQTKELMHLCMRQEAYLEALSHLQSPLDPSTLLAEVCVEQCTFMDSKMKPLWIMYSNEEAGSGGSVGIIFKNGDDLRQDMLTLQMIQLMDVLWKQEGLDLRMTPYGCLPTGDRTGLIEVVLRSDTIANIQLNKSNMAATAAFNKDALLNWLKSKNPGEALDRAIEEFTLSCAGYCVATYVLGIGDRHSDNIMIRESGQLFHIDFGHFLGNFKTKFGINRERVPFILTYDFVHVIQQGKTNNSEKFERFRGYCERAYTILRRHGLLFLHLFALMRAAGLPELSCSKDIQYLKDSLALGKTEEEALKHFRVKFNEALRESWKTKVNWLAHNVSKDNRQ
Chain of PI3Kδ (P27986 whole entry partner, canonical isoform): as the sequence (P27986 whole entry partner, canonical isoform) above
Chain of PI3Kγ (P48736 whole entry, canonical isoform): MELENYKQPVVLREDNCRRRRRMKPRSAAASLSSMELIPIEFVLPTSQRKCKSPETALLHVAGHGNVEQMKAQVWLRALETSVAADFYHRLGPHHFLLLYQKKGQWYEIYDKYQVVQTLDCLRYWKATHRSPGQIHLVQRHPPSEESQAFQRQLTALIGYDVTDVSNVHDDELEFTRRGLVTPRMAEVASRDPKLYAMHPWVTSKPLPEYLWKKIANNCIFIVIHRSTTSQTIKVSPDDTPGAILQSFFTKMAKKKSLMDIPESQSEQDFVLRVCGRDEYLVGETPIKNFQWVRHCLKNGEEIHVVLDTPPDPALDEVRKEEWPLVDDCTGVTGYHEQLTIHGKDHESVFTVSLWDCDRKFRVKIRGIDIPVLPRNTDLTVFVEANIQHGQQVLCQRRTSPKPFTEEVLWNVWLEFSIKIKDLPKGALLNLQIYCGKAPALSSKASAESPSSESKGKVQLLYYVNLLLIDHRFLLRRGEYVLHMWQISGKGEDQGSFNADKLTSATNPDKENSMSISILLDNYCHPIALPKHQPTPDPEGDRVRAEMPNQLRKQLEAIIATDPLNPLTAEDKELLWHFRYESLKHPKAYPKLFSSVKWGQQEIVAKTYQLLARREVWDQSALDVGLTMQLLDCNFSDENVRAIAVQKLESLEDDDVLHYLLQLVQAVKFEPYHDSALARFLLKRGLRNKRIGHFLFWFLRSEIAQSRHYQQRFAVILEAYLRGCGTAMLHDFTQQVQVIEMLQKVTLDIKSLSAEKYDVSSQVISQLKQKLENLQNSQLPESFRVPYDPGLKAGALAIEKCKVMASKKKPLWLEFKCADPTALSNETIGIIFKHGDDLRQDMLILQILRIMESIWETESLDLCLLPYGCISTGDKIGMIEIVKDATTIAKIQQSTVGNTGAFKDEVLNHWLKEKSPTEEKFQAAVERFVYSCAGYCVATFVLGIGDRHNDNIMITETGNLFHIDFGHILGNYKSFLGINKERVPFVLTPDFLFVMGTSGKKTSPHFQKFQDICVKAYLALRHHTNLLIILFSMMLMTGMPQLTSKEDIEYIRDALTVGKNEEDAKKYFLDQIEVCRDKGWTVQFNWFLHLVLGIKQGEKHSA

Cn1c(=O)n(-c2ccc(C(C)(C)C#N)cc2)c2c3cc(-c4cnc5ccccc5c4)ccc3ncc21 [BEZ235]
pAKT level by Western blot (p-AKT(Ser473)): decreased pAKT

Nc1cc(C(F)(F)F)c(-c2cc(N3CCOCC3)nc(N3CCOCC3)n2)cn1 [BKM120, reference compound]
pAKT level by Western blot (p-AKT(Ser473)): decreased pAKT | BRD4 inhibition (BRD4): no BRD4 inhibition

CC[C@H](Nc1ncnc2[nH]cnc12)c1nc2cccc(F)c2c(=O)n1-c1ccccc1 [CAL101]
MYCN expression (Brd4-precipitated chromatin, MYCN promoter PCR) (MYCN promoter region): did not | pAKT level by Western blot (p-AKT(Ser473)): decreased pAKT | BRD4 inhibition (BRD4): no BRD4 inhibition

O=c1cc(N2CCOCC2)oc2c(Cc3ccccc3)csc12 [Cmpd 1]
IC50 [1]: 864 nM

O=c1cc(N2CCOCC2)oc2c(-c3ccncc3)csc12 [Cmpd 2]
IC50 [1]: 3030 nM

O=c1cc(N2CCOCC2)oc2c(-c3cccnc3)csc12 [Cmpd 3]
IC50 [1]: 4870 nM

O=c1cc(N2CCOCC2)oc2c(-c3ccco3)csc12 [Cmpd 4]
IC50 [1]: 930 nM

N#Cc1ccc(-c2csc3c(=O)cc(N4CCOCC4)oc23)cc1 [Cmpd 5]
IC50 [1]: 7300 nM

O=c1cc(N2CCOCC2)oc2c(-c3ccccc3)csc12 [Cmpd 6]
IC50 [1]: 550 nM

O=c1cc(N2CCOCC2)oc2c(-c3ccc4c(c3)OCO4)csc12 [Cmpd 7]
IC50 [1]: 540 nM

COc1ccc(-c2csc3c(=O)cc(N4CCOCC4)oc23)cc1 [Cmpd 8]
IC50 [1]: 980 nM

CN(C)c1ccc(-c2csc3c(=O)cc(N4CCOCC4)oc23)cc1 [Cmpd 9]
IC50 [1]: 780 nM

Nc1cccc(-c2csc3c(=O)cc(N4CCOCC4)oc23)c1 [Cmpd 11, 3-(3-Amino-phenyl)-5-morpholin-4-yl-thieno[3,2-b]pyran-7-one]
IC50 [1]: 6320 nM

O=c1cc(N2CCOCC2)oc2c(-c3cc4ccccc4[nH]3)csc12 [Cmpd 12]
IC50 [1]: 1570 nM

O=c1cc(N2CCOCC2)oc2c(-c3cccs3)csc12 [Cmpd 14]
IC50 [1]: 1020 nM

Cc1ccc(-c2csc3c(=O)cc(N4CCOCC4)oc23)cc1 [Cmpd 15]
IC50 [1]: 948 nM

Cc1cccc(-c2csc3c(=O)cc(N4CCOCC4)oc23)c1 [Cmpd 16]
IC50 [1]: 1230 nM

O=c1cc(N2CCOCC2)oc2c(-c3ccc(Cl)cc3)csc12 [Cmpd 17]
IC50 [1]: 1410 nM

O=c1cc(N2CCOCC2)oc2c(-c3ccc(Cl)c(Cl)c3)csc12 [Cmpd 18]
IC50 [1]: 913 nM

O=c1cc(N2CCOCC2)oc2c(-c3ccc4[nH]ccc4c3)csc12 [Cmpd 19]
IC50 [1]: 901 nM

COC(=O)c1scc(-c2csc3c(=O)cc(N4CCOCC4)oc23)c1O [Cmpd 21]
IC50 [1]: 1040 nM

CN1CCOc2cc(-c3csc4c(=O)cc(N5CCOCC5)oc34)ccc21 [Cmpd 22]
IC50 [1]: 609 nM

O=c1cc(N2CCOCC2)oc2c(C#Cc3ccsc3)csc12 [Cmpd 23]
IC50 [1]: 1270 nM

O=c1cc(N2CCOCC2)oc2c(C#CCO)csc12 [Cmpd 24]
IC50 [1]: 4610 nM

O=c1cc(N2CCOCC2)oc2c(-c3ccsc3)csc12 [Cmpd 26]
IC50 [1]: 1560 nM

O=c1cc(N2CCOCC2)oc2c(-c3ccoc3)csc12 [Cmpd 27]
IC50 [1]: 3240 nM

COc1cccc(-c2csc3c(=O)cc(N4CCOCC4)oc23)c1 [Cmpd 29]
IC50 [1]: 1070 nM

COC(=O)c1ccc(-c2csc3c(=O)cc(N4CCOCC4)oc23)cc1 [Cmpd 44, Methyl 4-(5-morpholino-7-oxo-7H-thieno[3,2-b]pyran-3-yl)benzoate]
BRD4 inhibition (BRD4): showed activity against BRD4 regions 1 and 2 | inhibition at 0.3 µM (PI3Kγ): 26% | inhibition at 0.3 µM (PI3Kα): 53% | HDAC inhibitory activity (HDAC): No inhibitor activity | inhibition at 0.3 µM (PI3Kδ): 81%

O=C(NO)c1ccc(-c2csc3c(=O)cc(N4CCOCC4)oc23)cc1 [Cmpd 118]
inhibition at 0.3 µM (PI3Kγ): 30% | inhibition at 0.3 µM (PI3Kα): 76% | HDAC activity inhibition versus control (HDAC; 1 μM): 17% | HDAC activity inhibition versus control (HDAC; 10 μM): 25% | HDAC activity inhibition versus control (HDAC; 50 μM): 41% | HDAC inhibitory activity (HDAC): significant HDAC inhibitory activity | inhibition at 0.3 µM (PI3Kδ): 80%

Cc1c(Cn2c(C)nc3c(C(=O)O)cc(N4CCOCC4)cc32)cccc1C(F)(F)F [GSK2636771]
BRD4-1 inhibition (BRD4-1): some degree of BRD4-1 inhibitory activity

Cc1sc2c(c1C)C(c1ccc(Cl)cc1)=N[C@@H](CC(=O)OC(C)(C)C)c1nnc(C)n1-2 [JQ-1]
MYCN quantity by Western blot (N-MYC): inhibited only MYCN quantities | MYCN expression (Brd4-precipitated chromatin, MYCN promoter PCR) (MYCN promoter region): significantly repressed MYCN expression | PI3K inhibition (PI3K): does not inhibit PI3K

O=c1cc(N2CCOCC2)oc2c(-c3ccccc3)cccc12 [LY294002, 2-(4-morpholinyl)-8-phenyl-4H-1-benzopyran-4-one]
MYCN quantity by Western blot (N-MYC): decreased MYCN | MYCN expression (Brd4-precipitated chromatin, MYCN promoter PCR) (MYCN promoter region): significantly repressed MYCN expression | pAKT level by Western blot (p-AKT(Ser473)): decreased MYCN and pAKT | BET bromodomain inhibition (BET bromodomains): modestly inhibit

O=c1cc(N2CCNCC2)oc2c(-c3ccccc3)cccc12 [LY303511]
MYCN quantity by Western blot (N-MYC): inhibited only MYCN quantities | MYCN expression (Brd4-precipitated chromatin, MYCN promoter PCR) (MYCN promoter region): significantly repressed MYCN expression | BET bromodomain inhibition (BET bromodomains): retain BET bromodomain inhibition | PI3K inhibition activity (PI-3 kinases): lose PI3K inhibition activity

CS(=O)(=O)CCNCc1ccc(-c2ccc3ncnc(Nc4ccc(OCc5cccc(F)c5)c(Cl)c4)c3c2)o1 [Lapatinib]
breast cancer stem cells in biopsies after treatment (breast cancer stem cells): 5 % of cells

CN(c1ccccc1CNc1nc(Nc2ccc3c(c2)CC(=O)N3)ncc1C(F)(F)F)S(C)(=O)=O [PF-431396]
BRD4-1 inhibition (BRD4-1): some degree of BRD4-1 inhibitory activity

CC(C)n1nc(-c2cc3cc(O)ccc3[nH]2)c2c(N)ncnc21 [PP-242]
BRD4-1 inhibition (BRD4-1): some degree of BRD4-1 inhibitory activity

Cc1cnc(Nc2ccc(N3CCN(C)CC3)cc2)nc1Nc1cccc(S(=O)(=O)NC(C)(C)C)c1 [TG101209]
BRD4-1 inhibition (BRD4-1): potently inhibit

Cc1cnc(Nc2ccc(OCCN3CCCC3)cc2)nc1Nc1cccc(S(=O)(=O)NC(C)(C)C)c1 [TG-101348]
BRD4-1 inhibition (BRD4-1): some degree of BRD4-1 inhibitory activity
